In assay [1] the target is T1, Peroxisome proliferator-activated receptor gamma (Homo sapiens, UniProt P37231).
T1 sequence (P37231 whole entry): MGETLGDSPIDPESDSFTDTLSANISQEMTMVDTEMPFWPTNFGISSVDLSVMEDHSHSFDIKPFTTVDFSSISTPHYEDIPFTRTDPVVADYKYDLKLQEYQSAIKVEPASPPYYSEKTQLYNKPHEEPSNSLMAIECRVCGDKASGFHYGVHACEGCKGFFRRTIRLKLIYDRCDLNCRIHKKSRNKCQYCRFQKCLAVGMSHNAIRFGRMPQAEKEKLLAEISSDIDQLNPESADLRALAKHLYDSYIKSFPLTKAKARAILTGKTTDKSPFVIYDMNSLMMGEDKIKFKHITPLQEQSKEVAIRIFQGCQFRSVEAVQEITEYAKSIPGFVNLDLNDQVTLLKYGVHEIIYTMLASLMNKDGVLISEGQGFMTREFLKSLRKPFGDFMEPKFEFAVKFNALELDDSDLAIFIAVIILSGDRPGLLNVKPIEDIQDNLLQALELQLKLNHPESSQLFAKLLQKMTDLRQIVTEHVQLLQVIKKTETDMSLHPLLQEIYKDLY
In kind it is functional.

The target of another assay is D(1A) dopamine receptor (Homo sapiens, UniProt P21728).
For the next assay, the target named is Cannabinoid receptor 1 (Homo sapiens, UniProt P21554).
Assay [2] concerns the target T2, Endothelin receptor type B (Homo sapiens, UniProt P24530).
T2 sequence (P24530 whole entry): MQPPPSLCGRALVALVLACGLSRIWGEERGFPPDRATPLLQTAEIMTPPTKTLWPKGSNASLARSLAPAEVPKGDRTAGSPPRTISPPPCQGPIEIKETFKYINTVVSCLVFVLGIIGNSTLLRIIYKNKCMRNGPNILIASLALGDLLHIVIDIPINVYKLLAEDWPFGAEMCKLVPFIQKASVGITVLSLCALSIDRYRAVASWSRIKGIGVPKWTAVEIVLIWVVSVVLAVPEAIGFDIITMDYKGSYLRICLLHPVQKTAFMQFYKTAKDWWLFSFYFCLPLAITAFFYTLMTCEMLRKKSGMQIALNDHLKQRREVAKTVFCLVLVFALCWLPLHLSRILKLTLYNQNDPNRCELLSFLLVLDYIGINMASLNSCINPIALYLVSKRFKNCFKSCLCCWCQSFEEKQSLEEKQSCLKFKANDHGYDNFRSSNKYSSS

For assay [3], the target named is T3, 5-hydroxytryptamine receptor 1A (Homo sapiens, UniProt P08908).
T3 sequence (P08908 whole entry): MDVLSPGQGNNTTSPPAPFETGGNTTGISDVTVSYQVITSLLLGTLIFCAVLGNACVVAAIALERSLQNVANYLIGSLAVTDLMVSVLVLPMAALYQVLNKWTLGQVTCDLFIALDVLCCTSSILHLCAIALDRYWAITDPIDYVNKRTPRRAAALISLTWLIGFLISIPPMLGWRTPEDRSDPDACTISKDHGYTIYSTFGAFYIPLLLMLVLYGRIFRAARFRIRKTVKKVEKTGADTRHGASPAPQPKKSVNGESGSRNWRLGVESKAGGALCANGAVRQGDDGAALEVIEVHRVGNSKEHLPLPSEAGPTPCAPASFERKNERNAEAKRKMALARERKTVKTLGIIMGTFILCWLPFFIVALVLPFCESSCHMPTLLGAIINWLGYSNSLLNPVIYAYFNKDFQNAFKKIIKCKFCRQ

Another assay has as its target T4, B1 bradykinin receptor (Homo sapiens, UniProt P46663).
T4 sequence (P46663 whole entry): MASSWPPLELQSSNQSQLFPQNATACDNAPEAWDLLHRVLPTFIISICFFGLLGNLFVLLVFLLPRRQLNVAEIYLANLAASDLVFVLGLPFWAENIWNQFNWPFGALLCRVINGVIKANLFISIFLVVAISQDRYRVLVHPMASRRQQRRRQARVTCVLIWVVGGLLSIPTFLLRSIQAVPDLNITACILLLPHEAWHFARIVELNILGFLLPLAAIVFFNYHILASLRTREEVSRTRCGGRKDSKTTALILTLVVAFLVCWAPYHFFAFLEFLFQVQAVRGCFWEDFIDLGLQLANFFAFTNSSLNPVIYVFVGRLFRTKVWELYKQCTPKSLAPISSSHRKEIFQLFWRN

In another assay the target is T5, Androgen receptor (Homo sapiens, UniProt P10275).
T5 sequence (P10275 whole entry): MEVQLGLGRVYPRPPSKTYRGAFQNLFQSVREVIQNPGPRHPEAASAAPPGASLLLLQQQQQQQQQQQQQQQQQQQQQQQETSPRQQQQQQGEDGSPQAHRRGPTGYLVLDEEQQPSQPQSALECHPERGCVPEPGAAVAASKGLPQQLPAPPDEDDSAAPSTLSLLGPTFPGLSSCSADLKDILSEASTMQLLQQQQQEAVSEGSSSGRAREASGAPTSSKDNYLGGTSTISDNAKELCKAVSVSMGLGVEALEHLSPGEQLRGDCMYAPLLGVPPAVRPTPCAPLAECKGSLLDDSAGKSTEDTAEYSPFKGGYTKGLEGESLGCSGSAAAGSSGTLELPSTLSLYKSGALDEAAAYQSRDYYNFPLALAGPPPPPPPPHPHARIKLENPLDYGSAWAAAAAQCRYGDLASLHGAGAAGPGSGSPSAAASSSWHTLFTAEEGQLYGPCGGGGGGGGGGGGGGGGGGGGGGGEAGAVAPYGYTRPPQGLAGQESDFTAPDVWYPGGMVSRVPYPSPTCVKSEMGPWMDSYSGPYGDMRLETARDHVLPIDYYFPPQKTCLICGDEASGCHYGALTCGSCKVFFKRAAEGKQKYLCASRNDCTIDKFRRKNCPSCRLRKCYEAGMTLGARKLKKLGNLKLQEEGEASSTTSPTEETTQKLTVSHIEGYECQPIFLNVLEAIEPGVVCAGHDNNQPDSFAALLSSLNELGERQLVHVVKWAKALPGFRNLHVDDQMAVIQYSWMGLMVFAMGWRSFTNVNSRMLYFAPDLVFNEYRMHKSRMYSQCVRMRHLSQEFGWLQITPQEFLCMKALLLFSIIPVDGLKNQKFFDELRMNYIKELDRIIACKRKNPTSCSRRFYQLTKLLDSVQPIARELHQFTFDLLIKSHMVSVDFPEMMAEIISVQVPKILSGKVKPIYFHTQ

Bounds are passed on as bounds.

Usually AC50 stands for the concentration at which the activity in the assay is half-maximal. Lower therefore signals activity at low concentration.
Further: assay procedure not described here.

D(1A) dopamine receptor, sequence (P21728 whole entry): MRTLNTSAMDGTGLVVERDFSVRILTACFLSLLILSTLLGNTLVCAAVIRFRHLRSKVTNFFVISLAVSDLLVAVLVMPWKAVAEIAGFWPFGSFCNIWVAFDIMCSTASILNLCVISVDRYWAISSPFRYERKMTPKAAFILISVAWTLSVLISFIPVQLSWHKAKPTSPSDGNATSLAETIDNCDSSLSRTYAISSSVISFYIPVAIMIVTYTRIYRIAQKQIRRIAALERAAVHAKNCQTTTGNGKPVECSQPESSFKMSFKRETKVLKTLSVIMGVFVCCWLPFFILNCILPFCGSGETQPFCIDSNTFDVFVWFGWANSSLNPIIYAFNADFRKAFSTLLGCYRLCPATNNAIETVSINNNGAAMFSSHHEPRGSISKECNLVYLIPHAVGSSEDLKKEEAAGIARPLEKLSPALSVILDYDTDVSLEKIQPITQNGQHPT
Cannabinoid receptor 1, sequence (P21554 whole entry): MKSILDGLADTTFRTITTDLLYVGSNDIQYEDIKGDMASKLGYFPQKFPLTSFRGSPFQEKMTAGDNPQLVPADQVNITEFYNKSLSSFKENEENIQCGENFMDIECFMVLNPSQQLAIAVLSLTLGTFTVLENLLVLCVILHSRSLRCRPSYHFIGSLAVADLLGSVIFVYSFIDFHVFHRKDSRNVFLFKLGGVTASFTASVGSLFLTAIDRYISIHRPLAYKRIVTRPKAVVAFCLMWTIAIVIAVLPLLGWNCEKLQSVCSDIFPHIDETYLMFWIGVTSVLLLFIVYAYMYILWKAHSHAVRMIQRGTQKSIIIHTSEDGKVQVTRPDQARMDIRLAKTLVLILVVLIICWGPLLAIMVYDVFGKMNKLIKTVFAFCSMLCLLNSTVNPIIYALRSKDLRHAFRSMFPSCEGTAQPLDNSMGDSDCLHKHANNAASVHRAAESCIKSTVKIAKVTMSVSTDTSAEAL

Take `CC(=N)N1CC[C@H](SC2=C(C(=O)O)N3C(=O)[C@H]([C@@H](C)O)[C@H]3C2)C1`: the half-maximal activity concentration (AC50) in assay [1] is > 300 µM.

For `CO/N=C(\C(=O)N[C@@H]1C(=O)N2C(C(=O)O)=C(COC(N)=O)CS[C@H]12)c1ccco1` [CEFUROXIME], the half-maximal activity concentration (AC50) in assay [1] was > 30 µM.

Turning to `COC(=O)[C@H](c1ccccc1Cl)N1CCc2sccc2C1` [CLOPIDOGREL], the concentration at half-maximal activity (AC50) is > 10 µM on D(1A) dopamine receptor; > 30 µM in assay [1]; > 30 µM at Cannabinoid receptor 1; > 30 µM in assay [2]; > 10 µM in assay [3]; > 30 µM on B1 bradykinin receptor.

As to `C#Cc1cccc(Nc2ncnc3cc(OCCOC)c(OCCOC)cc23)c1` [ERLOTINIB], in assay [1], the AC50 was > 30 µM.

Take `CC1(C)O[C@@H]2C[C@H]3[C@@H]4C[C@H](F)C5=CC(=O)C=C[C@]5(C)[C@H]4[C@@H](O)C[C@]3(C)[C@]2(C(=O)CO)O1` [FLUNISOLIDE]: the concentration at half-maximal activity (AC50) in assay [1] was > 30 µM.

On to `C[C@H]1Oc2cc(cnc2N)-c2c(nn(C)c2C#N)CN(C)C(=O)c2ccc(F)cc21` [LORLATINIB], for which the concentration at half-maximal activity (AC50) in assay [1] was > 30 µM.

As to `CN(C)c1cc(CNCC(C)(C)C)c(O)c2c1C[C@H]1C[C@H]3[C@H](N(C)C)C(O)=C(C(N)=O)C(=O)[C@@]3(O)C(O)=C1C2=O` [OMADACYCLINE], the half-maximal activity concentration (AC50) (at Androgen receptor; in assay [1]) was > 30 µM in each case.

Take `O=C1NC(=O)C(c2ccccc2)(c2ccccc2)N1` [PHENYTOIN]: the AC50 in assay [1] was > 30 µM; at Cannabinoid receptor 1, > 10 µM; in assay [2], > 30 µM; in assay [3] it was > 10 µM; on B1 bradykinin receptor, > 30 µM.

In the case of `CC(C)C[C@H](CN)CC(=O)O` [PREGABALIN], the AC50 was > 30 µM in assay [1]; > 30 µM on Cannabinoid receptor 1; > 30 µM in assay [2]; > 10 µM in assay [3]; > 30 µM at B1 bradykinin receptor.

Take `CCOc1cc(CC(=O)N[C@@H](CC(C)C)c2ccccc2N2CCCCC2)ccc1C(=O)O` [REPAGLINIDE]: in assay [1], the AC50 was > 30 µM.

Regarding `CCCN(CCC)CCc1cccc2c1CC(=O)N2` [ROPINIROLE], the AC50 on D(1A) dopamine receptor is > 10 µM; in assay [1], > 30 µM; on Cannabinoid receptor 1, > 10 µM; in assay [2] it was > 30 µM; in assay [3], 8.15 µM; on B1 bradykinin receptor it was > 30 µM.

`CCCN(CCc1cccs1)[C@H]1CCc2c(O)cccc2C1` [ROTIGOTINE]: the AC50 in assay [1] was > 30 µM.

For the molecule `CC[C@H]1OC(=O)[C@H](C)[C@@H](O[C@H]2C[C@@](C)(OC)[C@@H](O)[C@H](C)O2)[C@H](C)[C@@H](O[C@@H]2O[C@H](C)C[C@H](N(C)C)[C@H]2O)[C@](C)(O)C[C@@H](C)/C(=N\OCOCCOC)[C@H](C)[C@@H](O)[C@]1(C)O` [ROXITHROMYCIN], in assay [1], the concentration at half-maximal activity (AC50) was > 30 µM.

Regarding `CC(=O)S[C@@H]1CC2=CC(=O)CC[C@]2(C)[C@H]2CC[C@@]3(C)[C@@H](CC[C@@]34CCC(=O)O4)[C@H]12` [SPIRONOLACTONE], the AC50 was > 10 µM at D(1A) dopamine receptor; > 30 µM in assay [1]; > 10 µM at Cannabinoid receptor 1; > 30 µM in assay [2]; > 10 µM in assay [3]; > 30 µM on B1 bradykinin receptor.

Source of the values: ChEMBL document CHEMBL5291721, “A preclinical secondary pharmacology resource illuminates target-adverse drug reaction associations of marketed drugs” (Nat Commun, 2023).
